The target in one assay is T1, SMARCA2 (Homo sapiens, UniProt P51531).
T1 construct: SMARCA2-HiBiT knock-in Hela monoclonal cell (CS302366); host or cells: HeLa SMARCA2-HiBiT knock-in monoclonal cells (heterozygous knock-in)
As to the kind of experiment: SMARCA2 HiBiT degradation assay in HeLa cells. The following applies: 18 hours incubation. The format is cell-based. As for the experimental part: (§1) Example A. SMARCA2 HiBiT and SMARCA4 HiBiT Degradation Assay
(§2) Preparation of SMARCA2/4-HiBiT Knock-In Cells
(§3) HiBiT peptide knock-in of SMARCA2 in LgBiT expressing HEK293T cells was performed by CRISPR-mediated tagging system as described Promega. The homozygous HiBiT knock-in on c-terminus SMARCA2 was confirmed by sanger sequence. SMARCA2-HiBiT knock-in Hela monoclonal cell (CS302366) and SMARCA4-HiBiT knock-in Hela monoclonal cell (CS3023226) were purchased from Promega. The heterozygous HiBiT-knock-in was confirmed by sanger sequence in both SMARCA2-HiBiT and SMARCA4-HiBiT monoclonal cells.
(§4) SMARCA2 HiBiT and SMARCA4 HiBiT Degradation Assay in HeLa Cells
(§5) Compounds were dissolved in DMSO to make 10 mM stock and 3-fold series dilutions were further conducted keeping the highest concentration 10 μM. NCIH1693 and NCIH520 cells were maintained in PRMI 1640 medium (Corning Cellgro, Catalog #:10-040-CV) supplemented with 10% v/v FBS (GE Healthcare, Catalog #: SH30910.03) by splitting 1:3 twice a week.
(§6) Dispense 10 ul aliquot of prepared Hela-SMARCA2-HiBiT or Hela-SMARCA4-HiBiT cells (1:1 ratio of cells:Trypan Blue (#1450013, Bio-Rad)) onto cell counting slide (#145-0011, Bio-Rad) and obtain cell density and cell viability using cell counter (TC20, Bio-Rad). Remove appropriate volume of resuspended cells from culture flask to accommodate 2500 cells/well @[…]. Transfer Hela-HiBiT cells to 50 mL conical (#430290, Corning). Spin down at 1000 rpm for 5 min using tabletop centrifuge (SPINCHRON 15, Beckman). Discard supernatant and resuspend cell pellet in modified EMEM (#30-2003, ATCC) cell culture media containing 10% FBS (F2422-500 ML, Sigma), and 1× Penicillin/Streptomycin (200 g/L) (30-002-CI, Corning) to a cell density of 125,000 cells/mL. Dispense […] of resuspended Hela-HiBit cells per well in 384-well TC treated plate (#12-565-343, Thermo Scientific) using standard cassette (#50950372, Thermo Scientific) on Multidrop Combi (#5840310, Thermo Scientific) inside laminar flow cabinet. Dispense test compounds onto plates using digital liquid dispenser (D300E, Tecan). Incubate plates in humidified tissue culture incubator @37° C. for 18 hours. Add […] of prepared Nano-Glo® HiBiT Lytic detection buffer (N3050, Promega) to each well of 384-well plate using small tube cassette (#24073295, Thermo Scientific) on Multidrop Combi, incubate @RT for 30-60 min. Read plates on microplate reader (Envision 2105, PerkinElmer) using 384 well Ultra-Sensitive luminescence mode. Raw data files and compound information reports are swept into centralized data lake and deconvoluted using automated scripts designed by TetraScience, Inc. Data analysis, curve-fitting and reporting done in Dotmatics Informatics Suite using Screening Ultra module.
(§7) In Table 5, A=DC50<0.1 μM; B=0.1 μM≤DC50<1 μM and C=DC50>1 μM. In Table 5, A=Dmax>75% and B=50%<Dmax≤75% and C=Dmax<50%.

The target in another assay is T2, SMARCA4 (Homo sapiens, UniProt P51532).
T2 construct: SMARCA4-HiBiT knock-in Hela monoclonal cell (CS3023226) were purchased from Promega; host or cells: HeLa SMARCA4-HiBiT knock-in monoclonal cells (heterozygous knock-in)
As to the kind of experiment: SMARCA4 HiBiT degradation assay in HeLa cells. In kind it is cell-based. The settings on record: 18 hours incubation. As for the experimental part:
as §1, §2, §3, §4, §5, §6, §7
For orientation: HiBiT is a short tag that completes a luciferase, so light tracks the accessible tagged protein.

Structures are written as SMILES.

T1 sequence (P51531 whole entry): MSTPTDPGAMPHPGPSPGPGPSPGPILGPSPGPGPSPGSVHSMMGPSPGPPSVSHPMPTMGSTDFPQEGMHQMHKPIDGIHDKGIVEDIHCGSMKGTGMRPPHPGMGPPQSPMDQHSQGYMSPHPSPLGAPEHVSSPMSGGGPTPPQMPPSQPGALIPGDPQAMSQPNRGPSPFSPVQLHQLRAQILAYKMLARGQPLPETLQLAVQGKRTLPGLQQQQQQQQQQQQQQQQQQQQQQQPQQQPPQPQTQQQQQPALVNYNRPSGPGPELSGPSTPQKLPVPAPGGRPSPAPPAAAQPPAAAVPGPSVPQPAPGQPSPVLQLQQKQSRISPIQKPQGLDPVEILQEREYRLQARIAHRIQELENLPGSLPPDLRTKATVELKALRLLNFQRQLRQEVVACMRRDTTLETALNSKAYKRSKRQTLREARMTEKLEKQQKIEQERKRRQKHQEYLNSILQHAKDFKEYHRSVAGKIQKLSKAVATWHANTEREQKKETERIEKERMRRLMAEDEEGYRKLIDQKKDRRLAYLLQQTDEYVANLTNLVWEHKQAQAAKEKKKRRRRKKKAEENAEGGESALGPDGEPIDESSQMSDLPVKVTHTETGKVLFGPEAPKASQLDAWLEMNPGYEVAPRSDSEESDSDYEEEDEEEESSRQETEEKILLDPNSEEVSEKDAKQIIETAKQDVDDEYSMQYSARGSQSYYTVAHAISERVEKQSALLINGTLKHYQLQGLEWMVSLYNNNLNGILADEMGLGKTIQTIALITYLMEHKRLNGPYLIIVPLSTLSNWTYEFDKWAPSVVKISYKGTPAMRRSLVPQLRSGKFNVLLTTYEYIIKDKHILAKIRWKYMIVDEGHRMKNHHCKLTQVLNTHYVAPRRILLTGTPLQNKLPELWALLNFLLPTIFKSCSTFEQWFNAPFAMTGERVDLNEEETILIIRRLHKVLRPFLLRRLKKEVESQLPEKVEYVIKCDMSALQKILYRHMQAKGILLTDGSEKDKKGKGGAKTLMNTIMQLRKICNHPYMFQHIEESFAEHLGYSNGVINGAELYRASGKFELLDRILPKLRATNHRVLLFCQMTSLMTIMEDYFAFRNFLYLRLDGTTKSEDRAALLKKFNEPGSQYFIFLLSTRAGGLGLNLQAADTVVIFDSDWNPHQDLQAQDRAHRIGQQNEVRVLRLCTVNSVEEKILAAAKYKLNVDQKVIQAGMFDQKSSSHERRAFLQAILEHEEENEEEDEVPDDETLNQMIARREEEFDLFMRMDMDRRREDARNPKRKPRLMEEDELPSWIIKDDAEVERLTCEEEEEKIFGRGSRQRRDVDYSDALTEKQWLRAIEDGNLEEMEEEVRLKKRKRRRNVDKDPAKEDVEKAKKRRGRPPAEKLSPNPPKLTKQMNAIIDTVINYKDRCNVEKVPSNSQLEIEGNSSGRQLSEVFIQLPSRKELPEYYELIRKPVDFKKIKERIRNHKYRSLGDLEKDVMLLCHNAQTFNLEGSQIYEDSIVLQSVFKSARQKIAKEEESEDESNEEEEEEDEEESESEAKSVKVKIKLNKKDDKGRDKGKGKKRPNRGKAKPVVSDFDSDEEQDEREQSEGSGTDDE
T2 sequence (P51532 whole entry): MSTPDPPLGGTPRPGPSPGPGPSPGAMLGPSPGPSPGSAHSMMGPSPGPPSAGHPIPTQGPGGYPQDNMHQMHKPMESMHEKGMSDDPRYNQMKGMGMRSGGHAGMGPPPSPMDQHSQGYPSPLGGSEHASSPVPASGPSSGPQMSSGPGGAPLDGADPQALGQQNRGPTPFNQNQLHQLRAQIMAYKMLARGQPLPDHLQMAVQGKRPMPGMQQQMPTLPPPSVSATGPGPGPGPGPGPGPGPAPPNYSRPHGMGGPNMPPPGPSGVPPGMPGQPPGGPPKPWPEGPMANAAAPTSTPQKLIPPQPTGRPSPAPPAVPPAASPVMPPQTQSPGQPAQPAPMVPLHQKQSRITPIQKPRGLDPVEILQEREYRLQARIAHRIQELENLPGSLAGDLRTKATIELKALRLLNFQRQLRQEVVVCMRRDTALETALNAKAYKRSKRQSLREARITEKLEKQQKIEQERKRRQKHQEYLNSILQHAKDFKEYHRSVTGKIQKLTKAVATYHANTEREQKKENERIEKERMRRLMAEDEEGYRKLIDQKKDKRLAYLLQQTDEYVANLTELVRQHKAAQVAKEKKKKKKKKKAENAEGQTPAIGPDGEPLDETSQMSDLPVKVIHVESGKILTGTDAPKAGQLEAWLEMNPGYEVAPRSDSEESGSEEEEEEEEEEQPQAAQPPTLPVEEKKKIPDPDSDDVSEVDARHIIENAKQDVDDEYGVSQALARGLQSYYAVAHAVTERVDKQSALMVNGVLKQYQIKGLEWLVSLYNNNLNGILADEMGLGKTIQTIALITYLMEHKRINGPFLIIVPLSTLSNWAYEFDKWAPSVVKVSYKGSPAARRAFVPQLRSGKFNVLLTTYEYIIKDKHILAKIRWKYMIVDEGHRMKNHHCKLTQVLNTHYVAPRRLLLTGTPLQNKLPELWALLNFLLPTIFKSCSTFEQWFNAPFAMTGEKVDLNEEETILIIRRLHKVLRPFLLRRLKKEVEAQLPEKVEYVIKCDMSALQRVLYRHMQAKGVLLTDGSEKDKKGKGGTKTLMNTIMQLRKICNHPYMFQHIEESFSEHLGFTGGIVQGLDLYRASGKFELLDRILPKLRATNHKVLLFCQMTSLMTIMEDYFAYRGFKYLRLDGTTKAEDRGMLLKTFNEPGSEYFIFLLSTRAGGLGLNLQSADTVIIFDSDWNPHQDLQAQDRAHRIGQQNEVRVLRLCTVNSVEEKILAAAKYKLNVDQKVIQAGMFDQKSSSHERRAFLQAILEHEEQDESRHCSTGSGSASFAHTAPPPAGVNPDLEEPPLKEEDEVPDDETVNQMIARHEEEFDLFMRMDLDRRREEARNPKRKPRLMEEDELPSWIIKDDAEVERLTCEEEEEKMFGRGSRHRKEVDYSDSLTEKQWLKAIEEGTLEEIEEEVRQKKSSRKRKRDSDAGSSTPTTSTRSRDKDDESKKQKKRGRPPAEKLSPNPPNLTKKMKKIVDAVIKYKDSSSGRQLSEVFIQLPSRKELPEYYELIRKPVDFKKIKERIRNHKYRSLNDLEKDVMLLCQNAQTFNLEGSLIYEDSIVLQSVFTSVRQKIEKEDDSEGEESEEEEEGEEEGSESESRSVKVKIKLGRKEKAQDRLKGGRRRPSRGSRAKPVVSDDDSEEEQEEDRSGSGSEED

With `CCC1CN(C(=O)N2CCN(CC3CCN(c4ccc5c(c4)C(=O)N([C@H]4CCC(=O)NC4=O)C5)CC3)CC2(C)C)CCc2c1[nH]c1nnc(-c3cccc(F)c3O)cc21` (stereo partly drawn) [Example 5, (3S)-3-(6-(4-((4-(9-ethyl-3-(3-fluoro-2-hydroxyphenyl)-5,6,7,8,9,10-hexahydropyridazino[4′,3′:4,5]pyrrolo[2,3-d]azepine-7-carbonyl)-3,3-dimethylpiperazin-1-yl)methyl)piperidin-1-yl)-1-oxoisoindolin-2-yl)piperidine-2,6-dione], on SMARCA2, the DC50 (usually the concentration giving 50% degradation) fell in the range of 100 to 1000 nM and the Dmax (usually the largest share of the target that was removed) was 50 to 75%. Further, at SMARCA4, the half-maximal degradation concentration (DC50) was more than 1000 nM and the Dmax is less than 50%.

For `CC1(C)CN(CC2CCN(c3ccc4c(c3)C(=O)N([C@H]3CCC(=O)NC3=O)C4)CC2)CCN1C(=O)N1CCc2[nH]c3nnc(-c4cccc(F)c4O)cc3c2CC1` [Example 4, (S)-3-(6-(4-((4-(3-(3-Fluoro-2-hydroxyphenyl)-5,6,7,8,9,10-hexahydro-pyridazino[4′,3′:4,5]pyrrolo[2,3-d]azepine-7-carbonyl)-3,3-dimethylpiperazin-1-yl)methyl)piperidin-1-yl)-1-oxoisoindolin-2-yl)piperidine-2,6-dione], on SMARCA2, the DC50 is less than 100 nM and the Dmax lay in the range of 50 to 75%. For the same compound, at SMARCA4, the DC50 is more than 1000 nM and the greatest degradation seen (Dmax) was less than 50%.

As to `CC1(C)CN(CC2CCN(c3ccc4c(c3)C(=O)N([C@H]3CCC(=O)NC3=O)C4)CC2)CCN1C(=O)N1C2CCC1Cc1c([nH]c3nnc(-c4cccc(F)c4O)cc13)C2` (stereo partly drawn) [Example 6, (3S)-3-(6-(4-((4-(3-(3-fluoro-2-hydroxyphenyl)-6,7,8,9,10,11-hexahydro-5H-6,9-epiminocycloocta[4,5]pyrrolo[2,3-c]pyridazine-12-carbonyl)-3,3-dimethylpiperazin-1-yl)methyl)piperidin-1-yl)-1-oxoisoindolin-2-yl)piperidine-2,6-dione], at SMARCA2, the DC50 was less than 100 nM and the Dmax was more than 75%. Also, on SMARCA4, the DC50 fell in the range of 100 to 1000 nM and the Dmax lay in the range of 50 to 75%.

At SMARCA2, `C[C@@H]1CN(CC2CCN(c3ccc4c(c3)C(=O)N([C@H]3CCC(=O)NC3=O)C4)CC2)C[C@H](C)N1C(=O)N1CCc2[nH]c3nnc(-c4ccccc4O)cc3c2CC1` [Example 2, (S)-3-(6-(4-(((3R,5S)-4-(3-(2-hydroxyphenyl)-5,6,7,8,9,10-hexahydropyridazino[4′,3′:4,5]pyrrolo[2,3-d]azepine-7-carbonyl)-3,5-dimethylpiperazin-1-yl)methyl)piperidin-1-yl)-1-oxoisoindolin-2-yl)piperidine-2,6-dione] gave a DC50 of less than 100 nM and a Dmax of more than 75%. At SMARCA4, this compound yielded a DC50 of less than 100 nM and a Dmax of more than 75%.

On SMARCA2, `O=C1CC[C@H](N2Cc3ccc(N4CCC(CN5CCN(C(=O)N6CCc7[nH]c8nnc(-c9ccccc9O)cc8c7CC6)CC5)CC4)cc3C2=O)C(=O)N1` [Example 3, (S)-3-(6-(4-((4-(3-(2-hydroxyphenyl)-5,6,7,8,9,10-hexahydropyridazino[4′,3′:4,5]pyrrolo[2,3-d]azepine-7-carbonyl)piperazin-1-yl)methyl)piperidin-1-yl)-1-oxoisoindolin-2-yl)piperidine-2,6-dione] returned a DC50 of less than 100 nM and a Dmax of more than 75%. On SMARCA4, the DC50 was less than 100 nM and the Dmax was more than 75%.

`CC1(C)CN(CC2CCN(c3ccc4c(c3)C(=O)N([C@H]3CCC(=O)NC3=O)C4)CC2)CCN1C(=O)N1CC2CCC1Cc1c2[nH]c2nnc(-c3cccc(F)c3O)cc12` (stereo partly drawn) [Example 7, (3S)-3-(6-(4-((4-(3-(3-fluoro-2-hydroxyphenyl)-5,6,7,8,9,10-hexahydro-6,9-(epiminomethano)cyclohepta[4,5]pyrrolo[2,3-c]pyridazine-12-carbonyl)-3,3-dimethylpiperazin-1-yl)methyl)piperidin-1-yl)-1-oxoisoindolin-2-yl)piperidine-2,6-dione]: on SMARCA2, the half-maximal degradation concentration (DC50) lay in the range of 100 to 1000 nM and the Dmax was less than 50%. Besides, at SMARCA4, the DC50 fell in the range of 100 to 1000 nM and the Dmax is less than 50%.

At SMARCA2, `CC1(C)CN(CC2CCN(c3ccc4c(c3)C(=O)N([C@H]3CCC(=O)NC3=O)C4)CC2)CCN1C(=O)N1CCc2[nH]c3nnc(-c4ccccc4O)cc3c2CC1` [Example 1, (S)-3-(6-(4-((4-(3-(2-Hydroxyphenyl)-5,6,7,8,9,10-hexahydropyridazino [4′,3′:4,5]pyrrolo[2,3-d]azepine-7-carbonyl)-3,3-dimethylpiperazin-1-yl)methyl)piperidin-1-yl)-1-oxoisoindolin-2-yl)piperidine-2,6-dione] displayed a DC50 of less than 100 nM and a Dmax of more than 75%. In addition, at SMARCA4, the DC50 was less than 100 nM and the Dmax is more than 75%.

The values above are taken from patent US20250074916A1, “BRM TARGETING COMPOUNDS AND ASSOCIATED METHODS OF USE” (Prelude Therapeutics Incorporated, priority 2023, published 2025).
